For test [1], the target named is T1, human CYP11B2 (Homo sapiens, UniProt P19099).
T1 construct: expressed in transfected cells
T1 sequence (P19099 25-503): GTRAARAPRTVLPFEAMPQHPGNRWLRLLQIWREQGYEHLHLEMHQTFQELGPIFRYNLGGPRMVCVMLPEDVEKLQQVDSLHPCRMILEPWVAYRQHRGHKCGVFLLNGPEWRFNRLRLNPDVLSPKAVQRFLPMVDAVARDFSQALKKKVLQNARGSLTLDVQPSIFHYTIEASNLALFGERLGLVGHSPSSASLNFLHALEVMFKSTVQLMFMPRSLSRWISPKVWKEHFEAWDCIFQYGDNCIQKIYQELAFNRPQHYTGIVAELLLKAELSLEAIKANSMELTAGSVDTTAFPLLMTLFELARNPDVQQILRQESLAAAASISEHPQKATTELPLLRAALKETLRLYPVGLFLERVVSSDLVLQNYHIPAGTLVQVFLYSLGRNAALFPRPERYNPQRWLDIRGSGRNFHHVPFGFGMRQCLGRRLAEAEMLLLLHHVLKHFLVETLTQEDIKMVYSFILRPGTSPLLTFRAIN
Description: G-402 cellular enzyme assay, human CYP11B2 (aldosterone release, HTRF). The following applies: G-402 cells expressing human CYP11B2; 1 μM Deoxycorticosterone. Format: cell-based. The source says: (§1) Herein we identified the use of the G-402 cell line as a host cell to ectopically express (transiently or stably) enzymes of the CYP11 family. Specifically we developed stable G-402 cells expressing ectopically human CYP11B1, human CYP11B2, human CYP11A1, cynomolgus CYP11B1 or cynomolgus CYP11B2 enzyme activity. Importantly the identified cell line G-402 expresses co-factors (adrenodoxin and adrenodoxin reductase) important for the activity of the CYP11 family and no relevant enzyme activity of the CYP11 family (in comparison to H295R cells) was detected in these cells. Therefore the G-402 cell line is uniquely suited as a host cell for the ectopic expression of enzymes from the CYP11 family.
(§2) G-402 cells can be obtained from ATCC(CRL-1440) and were originally derived from a renal leiomyoblastoma.
(§3) The expression plasmids contains the ORF for either human/cyno CYP11B1 or CYP11B2 under the control of a suitable promoter (CMV-promoter) and a suitable resistance marker (neomycin). Using standard techniques the expression plasmid is transfected into G-402 cells and these cells are then selected for expressing the given resistance markers. Individual cell-clones are then selected and assessed for displaying the desired enzymatic activity using 11-Deoxycorticosterone (Cyp11B2) or 11-Deoxycortisol (Cyp11B1) as a substrate.
(§4) G-402 cells expressing CYP11 constructs were established as described above and maintained in McCoy's 5a Medium Modified, ATCC Catalog No. 30-2007 containing 10% FCS and 400 μg/ml G418 (Geneticin) at 37° C. under an atmosphere of 5% CO2/95% air. Cellular enzyme assays were performed in DMEM/F12 medium containing 2.5% charcoal treated FCS and appropriate concentration of substrate (0.3-10 uM 11-Deoxycorticosterone, 11-Deoxycortisol or Corticosterone). For assaying enzymatic activity, cells were plated onto 96 well plates and incubated for 16 h. An aliquot of the supernatant is then transferred and analyzed for the concentration of the expected product (Aldosterone for CYP11B2; Cortisol for CYP11B1). The concentrations of these steroids can be determined using HTRF assays from CisBio analyzing either Aldosterone or Cortisol.
(§5) Inhibition of the release of produced steroids can be used as a measure of the respective enzyme inhibition by test compounds added during the cellular enzyme assay. The dose dependent inhibition of enzymatic activity by a compound is calculated by means of plotting added inhibitor concentrations (x-axes) vs. measured steroid/product level (y-axes). The inhibition is then calculated by fitting the following 4-parameter sigmoidal function (Morgan-Mercer-Flodin (MMF) model) to the raw data points using the least squares method:
(§6) [formula] wherein, A is the maximum y value, B is the EC50 factor determined using XLFit, C is the minimum y value and D is the slope value.
(§7) EC50 values for compounds claimed herein were tested with the G402-based assay system described. Cyp11B2 enzyme activity was tested in presence of 1 μM Deoxycorticosterone and variable amounts of inhibitors; Cyp11B1 enzyme activity was tested in presence of 1 μM Deoxycortisol and variable amounts of inhibitors.
Background: TR-FRET usually uses a lanthanide donor and a delayed reading to cut background.

The target in test [2] is T2, human CYP11B1 (Homo sapiens, UniProt P15538).
T2 construct: expressed in transfected cells
T2 sequence (P15538 25-503): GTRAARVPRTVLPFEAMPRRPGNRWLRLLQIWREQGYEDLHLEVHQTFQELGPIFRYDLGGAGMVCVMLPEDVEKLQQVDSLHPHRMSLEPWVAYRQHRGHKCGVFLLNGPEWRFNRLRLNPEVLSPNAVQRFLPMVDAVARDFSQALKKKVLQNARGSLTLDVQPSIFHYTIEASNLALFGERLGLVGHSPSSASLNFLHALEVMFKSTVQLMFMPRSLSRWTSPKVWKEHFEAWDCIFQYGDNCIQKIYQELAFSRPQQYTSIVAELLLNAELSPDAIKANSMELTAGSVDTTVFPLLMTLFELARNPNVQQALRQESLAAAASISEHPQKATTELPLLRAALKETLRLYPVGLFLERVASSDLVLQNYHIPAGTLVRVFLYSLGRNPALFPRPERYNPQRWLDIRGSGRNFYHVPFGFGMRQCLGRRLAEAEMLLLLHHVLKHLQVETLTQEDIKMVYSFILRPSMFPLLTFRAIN
Description: G-402 cellular enzyme assay, human CYP11B1 (cortisol release, HTRF). Format: cell-based. Conditions: G-402 cells expressing human CYP11B1; 1 μM Deoxycortisol.
Source text: as §1, §2, §3, §4, §5, §6, §7

Structures can show the parent of a compound that is named as a salt.

With `CN1C(=O)CCc2cc(-c3cncc(CNC(=O)c4ncoc4C4CC4)c3)ccc21` [Example 110], the EC50 (in general, the concentration that produces a half-maximal response) is 6 nM in test [1] and 187 nM in test [2].

In the case of `CN1C(=O)CCc2cc(-c3cncc(O[C@H]4CCCN(C(=O)OC(C)(C)C)C4)c3)ccc21` [Example 49, (S)-3-[5-(1-Methyl-2-oxo-1,2,3,4-tetrahydro-quinolin-6-yl)-pyridin-3-yloxy]-piperidine-1-carboxylic acid tert-butyl ester], the EC50 in test [1] was 271 nM; in test [2], 1000 nM.

On to `CN1C(=O)CCc2cc(-c3cncc(CNC(=O)c4cnc(Cl)cn4)c3)ccc21` [Example 125], for which the 50% effective concentration (EC50) was 3 nM in test [1] and 154 nM in test [2].

In the case of `CN1C(=O)CCc2nc(-c3cccnc3)ccc21` [Example 34, 1-Methyl-6-pyridin-3-yl-3,4-dihydro-1H-[1,5]naphthyridin-2-one], the 50% effective concentration (EC50) was 416 nM in test [1] and 29200 nM in test [2].

Turning to `CC(=O)OCC(=O)Nc1cncc(-c2ccc3c(c2)CCC(=O)N3C)c1` [Example 2, Acetic acid [5-(1-methyl-2-oxo-1,2,3,4-tetrahydro-quinolin-6-yl)-pyridin-3-ylcarbamoyl]-methyl ester], the EC50 in test [1] is 430 nM; in test [2], > 3000 nM.

As to `CCC(=O)N1CCC[C@H]1COc1cncc(-c2ccc3c(c2)CCC(=O)N3C)c1` [Example 106], the EC50 stood at 20 nM in test [1] and 2680 nM in test [2].

Turning to `CN1C(=O)CCc2cc(-c3cncc(C4(NC(=O)c5ncccc5Cl)CC4)c3)c(F)cc21` [Example 142], the figures for the concentration for a half-maximal effect (EC50) in test [1] and in test [2] were 3 nM and 380 nM, respectively.

With `CCS(=O)(=O)NCc1cncc(-c2ccc3c(n2)CCC(=O)N3C)c1` [Example 32, Ethanesulfonic acid [5-(5-methyl-6-oxo-5,6,7,8-tetrahydro-[1,5]naphthyridin-2-yl)-pyridin-3-ylmethyl]-amide], the concentration giving a half-maximal response (EC50) was 1290 nM in test [1] and > 10000 nM in test [2].

As to `CCS(=O)(=O)N1CC(Oc2cncc(-c3ccc4c(c3)CCC(=O)N4C)c2)C1` [Example 170, 6-[5-(1-Ethanesulfonyl-azetidin-3-yloxy)-pyridin-3-yl]-1-methyl-3,4-dihydro-1H-quinolin-2-one], the EC50 in test [1] came out at 15 nM; in test [2], 699 nM.

Regarding `CCC(=O)N1CCC[C@@H]1COc1cncc(-c2ccc3c(c2)CCC(=O)N3C)c1` [Example 128], the EC50 in test [1] was 119 nM; in test [2], 2290 nM.

For `CCS(=O)(=O)NCc1cncc(-c2cc3c(cc2F)N(C)C(=O)CC3)c1C` [Example 192, Ethanesulfonic acid [5-(7-fluoro-1-methyl-2-oxo-1,2,3,4-tetrahydro-quinolin-6-yl)-4-methyl-pyridin-3-ylmethyl]-amide], the EC50 in test [1] came out at 29 nM; in test [2], 1980 nM.

`CCC(=O)N1CC[C@@H](Oc2cncc(-c3ccc4c(c3)CCC(=O)N4C)c2)C1` [Example 121]: the values for the EC50 in test [1] and in test [2] were 19 nM and 1370 nM, respectively.

Turning to `CCS(=O)(=O)NC(c1cncc(-c2ccc3c(c2)CCC(=O)N3C)c1)C1CC1` (racemic) [Example 177, (rac)-Ethanesulfonic acid {cyclopropyl-[5-(1-methyl-2-oxo-1,2,3,4-tetrahydro-quinolin-6-yl)-pyridin-3-yl]-methyl}-amide], the EC50 in test [1] amounted to 117 nM; in test [2], 8460 nM.

Take `O=C1CCc2nc(-c3cccnc3)ccc2N1` [Example 33, 6-Pyridin-3-yl-3,4-dihydro-1H-[1,5]naphthyridin-2-one]: the 50% effective concentration (EC50) in test [1] is 1260 nM; in test [2], > 10000 nM.

Consider `CC(N[S@+]([O-])C(C)(C)C)c1cncc(-c2ccc3c(c2)CCC(=O)N3C)c1Cl` (single isomer, unassigned) [Example 249, (R)-2-Methyl-propane-2-sulfinic acid {(R or S)-1-[4-chloro-5-(1-methyl-2-oxo-1,2,3,4-tetrahydro-quinolin-6-yl)-pyridin-3-yl]-ethyl}-amide], for which the EC50 in test [1] was 14 nM; in test [2] it was 261 nM.

Turning to `CC(N)c1cncc(-c2ccc3c(c2)CCC(=O)N3C)c1Cl` (single isomer, unassigned) [Example 250, 6-[5-((R or S)-1-Amino-ethyl)-4-chloro-pyridin-3-yl]-1-methyl-3,4-dihydro-1H-quinolin-2-one hydrochloride], the half-maximal effective concentration (EC50) in test [1] was 35 nM; in test [2] it was 1250 nM.

Turning to `CCS(=O)(=O)NCc1cncc(-c2cc3c(cc2Cl)N(C)C(=O)CC3)c1` [Example 207, Ethanesulfonic acid [5-(7-chloro-1-methyl-2-oxo-1,2,3,4-tetrahydro-quinolin-6-yl)-pyridin-3-ylmethyl]-amide], the results for the EC50 in test [1] and in test [2] were 44 nM and 2540 nM, respectively.

Take `CN1C(=O)CCc2cc(-c3cncc(CNC(=O)c4cnn(C)c4)c3)ccc21` [Example 87, 1-Methyl-1H-pyrazole-4-carboxylic acid [5-(1-methyl-2-oxo-1,2,3,4-tetrahydro-quinolin-6-yl)-pyridin-3-ylmethyl]-amide]: the EC50 is 17 nM in test [1] and 1070 nM in test [2].

As for `CC(=O)N1CC[C@H](Oc2cncc(-c3ccc4c(c3)CCC(=O)N4C)c2)C1` [Example 254, 6-[5-((S)-1-Acetyl-pyrrolidin-3-yloxy)-pyridin-3-yl]-1-methyl-3,4-dihydro-1H-quinolin-2-one], the EC50 in test [1] amounted to 1 nM; in test [2], 49 nM.

As to `CN1C(=O)CCc2cc(-c3cncc(CN4CCCC4=O)c3)ccc21` [Example 18], the values for the EC50 in test [1] and in test [2] were 58 nM and 750 nM, respectively.

In the case of `CCS(=O)(=O)NC1(c2cncc(-c3ccc4c(c3)CCC(=O)N4C)c2)CC1` [Example 166, Ethanesulfonic acid {1-[5-(1-methyl-2-oxo-1,2,3,4-tetrahydro-quinolin-6-yl)-pyridin-3-yl]-cyclopropyl}-amide], the figures for the EC50 in test [1] and in test [2] were 22 nM and 1210 nM, respectively.

Consider `CCS(=O)(=O)NCc1cncc(-c2ccc3c(c2F)CCC(=O)N3C)c1` [Example 210, Ethanesulfonic acid [5-(5-fluoro-1-methyl-2-oxo-1,2,3,4-tetrahydro-quinolin-6-yl)-pyridin-3-ylmethyl]-amide], for which the concentration giving a half-maximal response (EC50) in test [1] was found to be 30 nM; in test [2] it was 1340 nM.

Regarding `Cc1c(-c2cc3c(cc2F)N(C)C(=O)CC3)cncc1C(C)N` (single isomer, unassigned) [Example 253, 6-[5-((R or S)-1-Amino-ethyl)-4-methyl-pyridin-3-yl]-7-fluoro-1-methyl-3,4-dihydro-1H-quinolin-2-one hydrochloride], the EC50 in test [1] came to 193 nM; in test [2] it was 4480 nM.
